Measurements from US10722495B2, “Cyanoindazole compounds and uses thereof” (Incyte Corporation, priority 2017, dated 2020).

Biological target: HPK1 (Homo sapiens (Human), UniProt Q92918)
Test: HPK1 Kinase Binding Assay
Settings: active HPK1 (SignalChem M23-11G), tracer 222, LanthaScreen Eu-Anti GST antibody, one hour incubation at 25° C.
Description: Example A. HPK1 Kinase Binding Assay
A stock solution of 1 mM test compound was prepared in DMSO. The compound plate was prepared by 3-fold and 11-point serial dilutions. 0.1 μL of the compound in DMSO was transferred from the compound plate to the white 384 well polystyrene plates. The assay buffer contained 50 mM HEPES, pH 7.5, 0.01% Tween-20, 5 mM MgCl2, 0.01% BSA, and 5 mM DTT. 5 μl of 4 nM active HPK1 (SignalChem M23-11G) prepared in the buffer was added to the plate. The enzyme concentration given was based on the given stock concentration reported by the vender. 5 μl of 18 nM tracer 222 (ThermoFisher PV6121) and 4 nM LanthaScreen Eu-Anti GST antibody (ThermoFisher PV5595) were added. After one hour incubation at 25° C., the plates were read on a PHERAstar FS plate reader (BMG Labtech). Ki values were determined.

Chain of HPK1 (Q92918 1-346): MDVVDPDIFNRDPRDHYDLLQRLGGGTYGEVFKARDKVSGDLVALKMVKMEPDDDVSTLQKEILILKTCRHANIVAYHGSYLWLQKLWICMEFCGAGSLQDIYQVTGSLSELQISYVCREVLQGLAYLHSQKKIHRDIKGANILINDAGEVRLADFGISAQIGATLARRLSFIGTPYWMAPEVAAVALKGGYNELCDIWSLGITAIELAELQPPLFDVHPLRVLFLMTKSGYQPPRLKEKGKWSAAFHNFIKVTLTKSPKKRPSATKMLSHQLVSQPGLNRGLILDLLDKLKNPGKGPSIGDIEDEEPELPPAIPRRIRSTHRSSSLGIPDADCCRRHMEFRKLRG

Row | Ki | SMILES
1 | ≤ 100 nM | CNCc1cc(C)c(-c2cc3c(-c4cnn(C)c4)n[nH]c3cc2C#N)c(F)c1 [Example 26, 5-(2-Fluoro-6-methyl-4-((methylamino)methyl)phenyl)-3-(1-methyl-1H-pyrazol-4-yl)-1H-indazole-6-carbonitrile]
2 | ≤ 100 nM | CNCc1cc(C)c(-c2cc3c(-c4ccc(N5CCOCC5)nc4)n[nH]c3cc2C#N)c(F)c1 [Example 28, 5-(2-Fluoro-6-methyl-4-((methylamino)methyl)phenyl)-3-(6-morpholinopyridin-3-yl)-1H-indazole-6-carbonitrile]
3 | ≤ 100 nM | CNCc1cc(C)c(-c2cc3c(-c4ccc(NC(C)=O)nc4)n[nH]c3cc2C#N)c(F)c1 [Example 29, N-(5-(6-Cyano-5-(2-fluoro-6-methyl-4-((methylamino)methyl)phenyl)-1H-indazol-3-yl)pyridin-2-yl)acetamide]
4 | ≤ 100 nM | CNCc1cc(C)c(-c2cc3c(-c4ccc(N5CCN(C(C)=O)CC5)nc4)n[nH]c3cc2C#N)c(F)c1 [Example 30, 3-(6-(4-Acetylpiperazin-1-yl)pyridin-3-yl)-5-(2-fluoro-6-methyl-4-((methylamino)methyl)phenyl)-1H-indazole-6-carbonitrile]
5 | ≤ 100 nM | CNCc1cc(C)c(-c2cc3c(-c4ccnc(C)c4)n[nH]c3cc2C#N)c(F)c1 [Example 31, 5-(2-Fluoro-6-methyl-4-((methylamino)methyl)phenyl)-3-(2-methylpyridin-4-yl)-1H-indazole-6-carbonitrile]
6 | ≤ 100 nM | CNCc1cc(C)c(-c2cc3c(-c4ccc(C5CCOCC5)nc4)n[nH]c3cc2C#N)c(F)c1 [Example 32, 5-(2-Fluoro-6-methyl-4-((methylamino)methyl)phenyl)-3-(6-(tetrahydro-2H-pyran-4-yl)pyridin-3-yl)-1H-indazole-6-carbonitrile]
7 | ≤ 100 nM | CNCc1cc(C)c(-c2cc3c(-c4ccc(C(C)(C)O)nc4)n[nH]c3cc2C#N)c(F)c1 [Example 33, 5-(2-Fluoro-6-methyl-4-((methylamino)methyl)phenyl)-3-(6-(2-hydroxypropan-2-yl)pyridin-3-yl)-1H-indazole-6-carbonitrile]
8 | ≤ 100 nM | CNCc1cc(C)c(-c2cc3c(-c4ccc(C)nc4)n[nH]c3cc2C#N)c(F)c1 [Example 34, 5-(2-Fluoro-6-methyl-4-((methylamino)methyl)phenyl)-3-(6-methylpyridin-3-yl)-1H-indazole-6-carbonitrile]
9 | ≤ 100 nM | CNCc1cc(C)c(-c2cc3c(-c4cnc(OC)nc4)n[nH]c3cc2C#N)c(F)c1 [Example 35, 5-(2-Fluoro-6-methyl-4-((methylamino)methyl)phenyl)-3-(2-methoxypyrimidin-5-yl)-1H-indazole-6-carbonitrile]
10 | ≤ 100 nM | CNCc1cc(C)c(-c2cc3c(-c4cnoc4)n[nH]c3cc2C#N)c(F)c1 [Example 38, 5-(2-Fluoro-6-methyl-4-((methylamino)methyl)phenyl)-3-(isoxazol-4-yl)-1H-indazole-6-carbonitrile]
11 | ≤ 100 nM | CNCc1cc(C)c(-c2cc3c(-c4ccc(C5CCOCC5)cc4)n[nH]c3cc2C#N)c(F)c1 [Example 39, 5-(2-Fluoro-6-methyl-4-((methylamino)methyl)phenyl)-3-(4-(tetrahydro-2H-pyran-4-yl)phenyl)-1H-indazole-6-carbonitrile]
12 | ≤ 100 nM | CNCc1cc(C)c(-c2cc3c(-c4ccc(N5CC[C@H](F)C5)nc4)n[nH]c3cc2C#N)c(F)c1 [Example 41, 5-(2-Fluoro-6-methyl-4-((methylamino)methyl)phenyl)-3-(6-((S)-3-fluoropyrrolidin-1-yl)pyridin-3-yl)-1H-indazole-6-carbonitrile]
13 | ≤ 100 nM | CNCc1cc(C)c(-c2cc3c(-c4ccc(N5CCC(O)CC5)nc4)n[nH]c3cc2C#N)c(F)c1 [Example 42, 5-(2-Fluoro-6-methyl-4-((methylamino)methyl)phenyl)-3-(6-(4-hydroxypiperidin-1-yl)pyridin-3-yl)-1H-indazole-6-carbonitrile]
14 | ≤ 100 nM | CC[C@@H](C)Nc1ccc(-c2n[nH]c3cc(C#N)c(-c4c(C)cc(CNC)cc4F)cc23)cn1 [Example 43, 3-(6-(((R)-sec-Butyl)amino)pyridin-3-yl)-5-(2-fluoro-6-methyl-4-((methylamino)methyl)phenyl)-1H-indazole-6-carbonitrile]
15 | ≤ 100 nM | CNCc1cc(C)c(-c2cc3c(-c4ccc(N5CC(CO)C5)nc4)n[nH]c3cc2C#N)c(F)c1 [Example 44, 5-(2-Fluoro-6-methyl-4-((methylamino)methyl)phenyl)-3-(6-(3-(hydroxymethyl)azetidin-1-yl)pyridin-3-yl)-1H-indazole-6-carbonitrile]

Second part, the compound before the results:

Row | SMILES | Ki
16 | CNCc1cc(C)c(-c2cc3c(-c4cnc(N5CCN(C)CC5)nc4)n[nH]c3cc2C#N)c(F)c1 [Example 27, 5-(2-Fluoro-6-methyl-4-((methylamino)methyl)phenyl)-3-(2-(4-methylpiperazin-1-yl)pyrimidin-5-yl)-1H-indazole-6-carbonitrile] | ≤ 100 nM
17 | CNCc1cc(C)c(-c2cc3c(-c4cnco4)n[nH]c3cc2C#N)c(F)c1 [Example 36, 5-(2-Fluoro-6-methyl-4-((methylamino)methyl)phenyl)-3-(oxazol-5-yl)-1H-indazole-6-carbonitrile] | ≤ 100 nM
18 | CNCc1cc(C)c(-c2cc3c(-c4cnsc4)n[nH]c3cc2C#N)c(F)c1 [Example 37, 5-(2-Fluoro-6-methyl-4-((methylamino)methyl)phenyl)-3-(isothiazol-4-yl)-1H-indazole-6-carbonitrile] | ≤ 100 nM
19 | CNCc1cc(C)c(-c2cc3c(-c4cnc(C)o4)n[nH]c3cc2C#N)c(F)c1 [Example 40, 5-(2-Fluoro-6-methyl-4-((methylamino)methyl)phenyl)-3-(2-methyloxazol-5-yl)-1H-indazole-6-carbonitrile] | ≤ 100 nM
20 | CNCc1cc(C)c(-c2cc3c(-c4cccc(N5CCC(O)CC5)n4)n[nH]c3cc2C#N)c(F)c1 [Example 45, 5-(2-Fluoro-6-methyl-4-((methylamino)methyl)phenyl)-3-(6-(4-hydroxypiperidin-1-yl)pyridin-2-yl)-1H-indazole-6-carbonitrile] | ≤ 100 nM
21 | CNCc1cc(C)c(-c2cc3c(-c4cccc(N5CCN(C)CC5)n4)n[nH]c3cc2C#N)c(F)c1 [Example 46, 5-(2-Fluoro-6-methyl-4-((methylamino)methyl)phenyl)-3-(6-(4-methylpiperazin-1-yl)pyridin-2-yl)-1H-indazole-6-carbonitrile] | ≤ 100 nM
22 | CNCc1cc(C)c(-c2cc3c(-c4cccc(N5CC[C@H](N(C)C)C5)n4)n[nH]c3cc2C#N)c(F)c1 [Example 47, 3-(6-((S)-3-(Dimethylamino)pyrrolidin-1-yl)pyridin-2-yl)-5-(2-fluoro-6-methyl-4-((methylamino)methyl)phenyl)-1H-indazole-6-carbonitrile] | ≤ 100 nM
23 | Cc1ccccc1-c1cc2c(-c3cnn(C)c3)n[nH]c2cc1C#N [Example 48, 3-(1-Methyl-1H-pyrazol-4-yl)-5-o-tolyl-1H-indazole-6-carbonitrile] | ≤ 100 nM
24 | Cn1cc(-c2n[nH]c3cc(C#N)c(-c4ccccc4F)cc23)cn1 [Example 49, 5-(2-Fluorophenyl)-3-(1-methyl-1H-pyrazol-4-yl)-1H-indazole-6-carbonitrile] | ≤ 100 nM
25 | COc1cccc(F)c1-c1cc2c(-c3cnn(C)c3)n[nH]c2cc1C#N [Example 50, 5-(2-Fluoro-6-methoxyphenyl)-3-(1-methyl-1H-pyrazol-4-yl)-1H-indazole-6-carbonitrile] | ≤ 100 nM
26 | Cc1cccc(F)c1-c1cc2c(-c3cnn(C)c3)n[nH]c2cc1C#N [Example 51, 5-(2-Fluoro-6-methylphenyl)-3-(1-methyl-1H-pyrazol-4-yl)-1H-indazole-6-carbonitrile] | ≤ 100 nM
